In patent US20140335186A1, “METHODS AND COMPOSITIONS FOR ENHANCING CD4+ REGULATORY T CELLS” (Selecta Biosciences, Inc., priority 2013, published 2014):

Tested on: CD4+ OTII cells (CD25+Fox3p+ regulatory T cell phenotype)
Experiment: Induction of CD4+ regulatory T cells: CD4+ OTII cells transferred into SJL mice, flow cytometry of popliteal lymph nodes
Type: in vivo, mouse
Settings: s.c. hind limbs on days 1 and 5, popliteal lymph nodes on day 10
From the text: In order to monitor the determine the effect of immunosuppressant attached to synthetic nanocarriers on the development of CD4+ regulatory T cells, CD4+ T cells were purified from the transgenic mouse strain OTII using negative selection by magnetic-activated cell sorting (MACS). OTII mice express a T cell receptor specific for the chicken ovalbumin peptide OVA323-339. Following isolation, 4×10^6 CD4+ OTII cells were transferred into SJL mice congenically expressing the pan-leukocyte marker CD45.1 (Ptprc^a) (SJL-Prprc^a/BoyAiTac).
On day 10, 5 days following the second administration of the indicated treatment, the animlas were sacrified and the popliteal lymph nodes that drain the site of injection were harvested to analyze developmental status and quantify the CD4+ OTII cells that had been transferred into the SJL mice by flow cytometry.

fOPII.323: free chicken ovalbumin peptide OVA323-339 (KISQAVHAAHAEINEAG; UniProt P01012 323-339, looked up, fragment)
proportion of transferred OTII cells with regulatory T cell phenotype (CD25+Fox3p+), FIG. 1: detectable but not statisitically significant increase
